Assay results from US10562900B2 (Shanghai Haihe Pharmaceutical Co., Ltd., priority 2014, dated 2020).
pIC50: −log10 of the molar value.

Key:
[1] = target: FGFR2 (Homo sapiens (Human), UniProt P21802); test: FGFR2 kinase activity at the molecular level (ELISA, Poly(Glu,Tyr) 4:1 substrate); format: biochemical; details: kinase domain recombinant protein, 5 μM ATP
Protocol: (§1) 100 μL/well of 2 mg/mL OPD developing solution (diluted with 0.1M citric acid-sodium citrate buffer containing 0.03% H2O2 (pH=5.4)), and reacted in dark for 1-10 minutes at 25° C.

[2] = target: FGFR1 (Homo sapiens (Human), UniProt P11362); test: FGFR1 kinase activity at the molecular level (ELISA, Poly(Glu,Tyr) 4:1 substrate); format: biochemical; details: kinase domain recombinant protein, 5 μM ATP
Protocol: as §1

Sequence of FGFR1 (P11362 478-767): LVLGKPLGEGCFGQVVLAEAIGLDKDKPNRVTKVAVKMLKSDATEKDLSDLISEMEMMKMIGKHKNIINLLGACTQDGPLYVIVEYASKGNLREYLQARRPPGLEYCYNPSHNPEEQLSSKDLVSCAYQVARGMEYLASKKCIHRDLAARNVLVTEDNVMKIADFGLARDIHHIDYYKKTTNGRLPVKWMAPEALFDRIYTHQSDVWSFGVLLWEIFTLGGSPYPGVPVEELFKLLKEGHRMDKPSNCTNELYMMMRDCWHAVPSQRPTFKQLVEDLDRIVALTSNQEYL
Sequence of FGFR2 (P21802 481-770): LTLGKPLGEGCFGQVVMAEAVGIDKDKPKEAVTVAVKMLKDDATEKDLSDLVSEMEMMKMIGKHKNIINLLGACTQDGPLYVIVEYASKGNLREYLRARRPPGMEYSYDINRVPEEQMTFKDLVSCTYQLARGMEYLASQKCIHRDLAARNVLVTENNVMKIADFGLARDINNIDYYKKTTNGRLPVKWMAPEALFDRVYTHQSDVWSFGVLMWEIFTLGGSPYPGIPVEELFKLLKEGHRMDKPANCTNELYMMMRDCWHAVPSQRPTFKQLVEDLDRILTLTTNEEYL

| SMILES | pIC50 [1] | pIC50 [2] |
| --- | --- | --- |
| COc1cc(OC)c(Cl)c(-c2ccc3c(NC(=O)c4ccc(NCCN(C)C)cc4)n[nH]c3c2)c1Cl [Example 20, N-(6-(2,6-dichloro-3,5-dimethoxyphenyl)-1H-indazole-3-yl)-4-((2-(dimethylamino)ethyl)amino)benzamide] | > 7.00 | > 7.00 |
| COc1cc(OC)c(Cl)c(-c2ccc3c(NC(=O)c4ccc(N5C[C@@H](C)N[C@@H](C)C5)cn4)n[nH]c3c2)c1Cl [Example 21, N-(6-(2,6-dichloro-3,5-dimethoxyphenyl)-1H-indazole-3-yl)-5-((3R,5S)-3,5-dimethyl-1-yl)pyridine amide] | > 7.00 | > 7.00 |
| COc1cc(OC)c(Cl)c(-c2ccc3c(NC(=O)c4ccc(N5CCNC(C)(C)C5)cc4)n[nH]c3c2)c1Cl [Example 22, N-(6-(2,6-dichloro-3,5-dimethoxyphenyl)-1H-indazole-3-yl)-4-(3,3-dimethyl-1-yl)benzamide] | > 7.00 | > 7.00 |
| COc1cc(OC)c(Cl)c(-c2ccc3c(NC(=O)c4cccc(N5CCN(C)CC5)c4)n[nH]c3c2)c1Cl [Example 23, N-(6-(2,6-dichloro-3,5-dimethoxyphenyl)-1H-indazole-3-yl)-3-(4-methyl-1-yl)benzamide] | > 7.00 | > 7.00 |
| COc1cc(OC)c(Cl)c(-c2ccc3c(NC(=O)c4ccc(N5CCN(C(C)C)CC5)cc4)n[nH]c3c2)c1Cl [Example 24, N-(6-(2,6-dichloro-3,5-dimethoxyphenyl)-1H-indazole-3-yl)-4-(4-isopropyl-1-yl)benzamide] | > 7.00 | > 7.00 |
| COc1cc(OC)c(Cl)c(-c2ccc3c(NC(=O)c4ccc(N5CCNCC5)cc4)n[nH]c3c2)c1Cl [Example 25, N-(6-(2,6-dichloro-3,5-dimethoxyphenyl)-1H-indazole-3-yl)-4-(piperazine-1-yl)benzamide] | > 7.00 | > 7.00 |
| COc1cc(OC)c(Cl)c(-c2ccc3c(NC(=O)c4ccc(NCCCN(C)C)cc4)n[nH]c3c2)c1Cl [Example 26, N-(6-(2,6-dichloro-3,5-dimethoxyphenyl)-1H-indazole-3-yl)-4-((3(dimethylamino)propyl)amino)benzamide] | > 7.00 | > 7.00 |
| COc1cc(OC)c(Cl)c(-c2ccc3c(NC(=O)c4ccc(N5CCN(CCO)CC5)cc4)n[nH]c3c2)c1Cl [Example 27, N-(6-(2,6-dichloro-3,5-dimethoxyphenyl)-1H-indazole-3-yl)-4-(4-(2-hydroxyethyl)piperazinyl)benzamide] | > 7.00 | > 7.00 |
| COc1cc(OC)c(Cl)c(-c2ccc3c(NC(=O)c4ccc(NC(=O)CN(C)C)cc4)n[nH]c3c2)c1Cl [Example 28, N-(6-(2,6-dichloro-3,5-dimethoxyphenyl)-1H-indazole-3-yl)-4-(2-(dimethylamino)acetylamino)benzamide] | > 7.00 | > 7.00 |
| COc1cc(OC)cc(-c2ccc3c(NC(=O)c4ccc(N5C[C@@H](C)N[C@@H](C)C5)cc4)n[nH]c3c2)c1 [Example 29, N-(6-(3,5-dimethoxyphenyl)-1H-indazole-3-yl)-4-((3R, 5S)-3,5-dimethylpiperazine-1-yl)benzamide] | > 7.00 | > 7.00 |
| COc1cc(OC)c(Cl)c(-c2ccc3c(NC(=O)c4ccc(N5CCN(C(=O)C(C)(C)C)CC5)cc4)n[nH]c3c2)c1Cl [Example 30, N-(6-(2,6-dichloro-3,5-dimethoxyphenyl)-1H-indazole-3-yl)-4-(4-pivaloylpiperazine-1-yl)benzamide] | > 7.00 | > 7.00 |
| COc1cc(OC)c(Cl)c(-c2ccc3c(NC(=O)c4cnn(CCO)c4)n[nH]c3c2)c1Cl [Example 31, N-(6-(2,6-dichloro-3,5-dimethoxyphenyl)-1H-indazole-3-yl)-1-(2-hydroxyethyl)-1H-pyrazol-4-formamide] | > 7.00 | > 7.00 |
| COc1cc(OC)c(Cl)c(-c2ccc3c(NC(=O)c4ccc(CCC(=O)N(C)C)cc4)n[nH]c3c2)c1Cl [Example 33, N-(6-(2,6-dichloro-3,5-dimethoxyphenyl)-1H-indazole-3-yl)-4-(3-(dimethylamino)-3-oxopropyl)benzamide] | > 7.00 | > 7.00 |
| COc1cc(OC)c(Cl)c(-c2ccc3c(NC(=O)c4ccc(CN(C)C)cc4)n[nH]c3c2)c1Cl [Example 34, N-(6-(2,6-dichloro-3,5-dimethoxyphenyl)-1H-indazole-3-yl)-4-((dimethylamino)methyl)benzamide] | > 7.00 | > 7.00 |
| COc1cc(OC)c(Cl)c(-c2ccc3c(NC(=O)c4ccc(N(C)C)cc4)n[nH]c3c2)c1Cl [Example 35, N-(6-(2,6-dichloro-3,5-dimethoxyphenyl)-1H-indazole-3-yl)-4-(dimethylamino)benzamide] | > 7.00 | > 7.00 |
| COc1cc(OC)c(Cl)c(-c2ccc3c(NC(=O)c4ccc(N5CCN(C(C)=O)CC5)cc4)n[nH]c3c2)c1Cl [Example 36, 4-(4-acetylpiperazine-1-yl)-N-(6-(2,6-dichloro-3,5-dimethoxyphenyl)-1H-indazole-3-yl)benzamide] | > 7.00 | > 7.00 |
| COc1cc(OC)c(Cl)c(-c2ccc3c(NC(=O)c4ccc(N5CCC(N(C)C)CC5)cc4)n[nH]c3c2)c1Cl [Example 37, N-(6-(2,6-dichloro-3,5-dimethoxyphenyl)-1H-indazole-3-yl)-4-(4-(dimethylamino)piperidine-1-yl)benzamide] | > 7.00 | > 7.00 |

| SMILES | pIC50 [1] | pIC50 [2] |
| --- | --- | --- |
| COc1cc(OC)c(F)c(-c2ccc3c(NC(=O)c4ccc(N5CCN(C)CC5)cc4)n[nH]c3c2)c1F [Example 45, N-(6-(2,6-difluoro-3,5-dimethoxyphenyl)-1H-indazole-3-yl)-4-(4-methylpiperazine-1-yl)benzamide] | > 7.00 | > 7.00 |
| COc1cc(OC)c(F)c(-c2ccc3c(NC(=O)c4ccc(N5CCNC(C)(C)C5)cc4)n[nH]c3c2)c1F [Example 46, N-(6-(2,6-difluoro-3,5-dimethoxyphenyl)-1H-indazole-3-yl)-4-(3,3-dimethylpiperazine-1-yl)benzamide] | > 7.00 | > 7.00 |
| CCN1CCN(c2ccc(C(=O)Nc3n[nH]c4cc(-c5c(F)c(OC)cc(OC)c5F)ccc34)cc2)CC1 [Example 47, N-(6-(2,6-difluoro-3,5-dimethoxyphenyl)-1H-indazole-3-yl)-4-(4-ethylpiperazine-1-yl)benzamide] | > 7.00 | > 7.00 |
| COc1cc(OC)c(F)c(-c2ccc3c(NC(=O)c4ccc(N5CCN(C)CC5)cc4)n[nH]c3n2)c1F [Example 48, N-(6-(2,6-difluoro-3,5-dimethoxyphenyl)-1H-pyrazolo [3,4-b]pyridine-3-yl)-4-(4-methylpiperazine-1-yl)benzamide] | > 7.00 | > 7.00 |
| COc1cc(OC)c(F)c(-c2ccc3c(NC(=O)c4ccc(N5C[C@@H](C)N[C@@H](C)C5)cc4)n[nH]c3c2)c1 [Example 55] | > 7.00 | > 7.00 |
| COc1cc(OC)c(Cl)c(-c2ccc3c(NC(=O)c4ccc(N5C[C@@H](C)N[C@@H](C)C5)cc4)n[nH]c3n2)c1Cl [Example 64, N-(6-(2,6-dichloro-3,5-dimethoxyphenyl)-1H-pyrazolo [3,4-b]pyridin-3-yl)-4-((3S,5R)-3,5-dimethylpiperazine-1-yl)benzamide] | > 7.00 | > 7.00 |
| CCN1CCN(c2ccc(C(=O)Nc3n[nH]c4nc(-c5c(Cl)c(OC)cc(OC)c5Cl)ccc34)cc2)CC1 [Example 65, N-(6-(2,6-dichloro-3,5-dimethoxyphenyl)-1H-pyrazolo [3,4-b]pyridin-3-yl)-4-(4-ethylpiperazine-1-yl)benzamide] | > 7.00 | > 7.00 |
| COc1cc(OC)c(Cl)c(-c2ccc3c(NC(=O)c4ccc(N5C[C@@H](C)N[C@@H](C)C5)cc4)n[nH]c3n2)c1 [Example 66] | > 7.00 | > 7.00 |
| COCCN1CCN(c2ccc(C(=O)Nc3n[nH]c4nc(-c5c(Cl)c(OC)cc(OC)c5Cl)ccc34)cc2)CC1 [Example 67] | > 7.00 | > 7.00 |
| COc1cc(OC)cc(-c2ccc3c(NC(=O)c4ccc(N5C[C@@H](C)N[C@@H](C)C5)cc4)n[nH]c3n2)c1 [Example 68, N-(6-(3,5-dimethoxyphenyl)-1H-pyrazolo [3,4-b]pyridin-3-yl)-4-(((3R,5S)-3,5-dimethylpiperazine-1-yl))benzamide] | > 7.00 | > 7.00 |
| COc1cc(OC)c(Cl)c(-c2ccc3c(NC(=O)c4ccc(N5CCOCC5)cc4)n[nH]c3n2)c1Cl [Example 70, N-(6-(2,6-dichloro-3,5-dimethoxyphenyl)-1H-pyrazolo [3,4-b]pyridin-3-yl)-4-morpholino benzamide] | > 7.00 | > 7.00 |
| COc1cc(OC)c(Cl)c(-c2ccc3c(NC(=O)c4ccc(N5C[C@@H](C)N[C@@H](C)C5)nc4)n[nH]c3n2)c1Cl [Example 71] | > 7.00 | > 7.00 |
| COc1cc(OC)c(Cl)c(-c2ccc3c(NC(=O)c4ccc(N5CCNC(C)(C)C5)cc4)n[nH]c3n2)c1Cl [Example 72] | > 7.00 | > 7.00 |
| COc1cc(OC)c(Cl)c(-c2ccc3c(NC(=O)c4ccc(N5CC6(CNC6)C5)cc4)n[nH]c3n2)c1Cl [Example 73, N-(6-(2,6-dichloro-3,5-dimethoxyphenyl)-1H-pyrazolo [3,4-b]pyridin-3-yl)-4-(2,6-diazaspiro [3.3]heptane-2-yl)benzamide] | > 7.00 | > 7.00 |
| COc1cc(OC)c(Cl)c(-c2ncc3c(NC(=O)c4ccc(N5CCN(C)CC5)cc4)n[nH]c3n2)c1Cl [Example 83] | > 7.00 | > 7.00 |
| COc1cc(OC)c(Cl)c(-c2ccc3c(NC(=O)c4ccc(N5CCN(C)CC5)nc4)n[nH]c3n2)c1Cl [Example 85, N-(6-(2,6-dichloro-3,5-dimethoxyphenyl)-1H-pyrazolo [3,4-b]pyridin-3-yl)-6-(4-methylpiperazine-1-yl)nicotinamide] | > 7.00 | > 7.00 |
